Assay in all cases: inhibition of tumour cell growth, NCI panel, 48 h
The subject of assay [1] is A549.
Assay [2] relates to ACHN.
Assay [3] deals with HCT-15.
The subject of assay [4] is HT-29.
Assay [5] concerns K562.
The subject of assay [6] is KM12.
The subject of assay [7] is Malme-3M.
Assay [8] has as its system NCI-H226.
For assay [9], the system named is NCI-H522.
Assay [10] relates to OVCAR-3.
Assay [11] deals with SF-268.
Assay [12] relates to SK-MEL-2.
Assay [13] concerns SK-OV-3.
For assay [14], the system named is SNB-19.
Assay [15] has as its system TK-10.
Assay [16] relates to U-251.
In assay [17] the test system is UACC-257.
The subject of assay [18] is UO-31.
Assay [19] has as its system OVCAR-5.

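A five-concentration, 48-hour dose response in 96-well plates underlies each endpoint, interpolated linearly between surrounding concentrations. Abbreviation: GI50, concentration required for 50% inhibition of growth.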 Calls of active or inactive are those of the source. Rule as the data show it: active = GI50 up to about 1.1 µM and inactive = higher. Some results are limits rather than exact numbers.

As to `Cc1nnc(Nc2ccc(Cl)cc2)o1`, the GI50 in assay [1] was > 10 µM (inactive); in assay [2], > 10 µM (inactive); in assay [3], more than 10 µM; in assay [4] it was > 10 µM (inactive); in [5] it was > 10 µM (inactive); in assay [6], > 10 µM (inactive). The GI50 in assay [7], in [8], in [9], in assay [10], in [11] and in assay [12] was > 10 µM (inactive) in each case. Also, the GI50 in assay [13], in assay [14], in assay [15], in assay [16], in assay [17] and in assay [18] was > 10 µM (inactive) in each case.

With `CC1[C@@H]2CC=C3C4CCC5Cc6nc7c(nc6C[C@@]5(C)C4CC(=O)[C@]32CO[C@@]1(O)C(O)CC(C)(C)O)CC1CCC2C3=C[C@H]4O[C@@]5(O[C@@](C)(CO)C[C@@H]5O)C(C)[C@@]4(O)[C@]3(C)[C@@H](O)CC2[C@]1(C)C7` (some centres not stated), the GI50 in assay [1] was 0.0031 µM (active); in assay [3] it was 0.015 µM; in [4], 0.00459 µM (active); in assay [5], 0.0112 µM (active); in assay [6], 0.0181 µM (active); in [7], 0.0166 µM (active). The GI50 in [8] was 0.00622 µM (active); in assay [9], 0.0455 µM (active); in [10], 0.491 µM (active); in [19], 0.00773 µM (active); in [11] it was 0.00676 µM (active); in assay [12], 0.00775 µM (active). Further, the GI50 in [13] was 0.00184 µM (active); in [14], 0.0366 µM (active); in assay [16] it was < 0.00036 µM (active); in assay [17] it was 0.0491 µM (active); in assay [18], 0.0259 µM (active).

Consider `CC(=O)N/C(=C\c1ccc(Cc2nc3c([nH]2)C(=O)c2ccccc2C3=O)cc1)c1nc2c([nH]1)C(=O)c1ccccc1C2=O`, for which the GI50 in assay [1], in [2], in assay [4], in assay [5], in [6] and in assay [7] was > 100 µM (inactive) each time. Besides, the GI50 in assay [8], in assay [9], in assay [10], in assay [19], in assay [11] and in assay [12] was > 100 µM (inactive) throughout. For the same compound, the GI50 in assay [13] was > 100 µM (inactive); in assay [14] it was > 100 µM (inactive); in assay [15], 78.9 µM (inactive); in assay [16], 78.5 µM (inactive); in [17], > 100 µM (inactive); in assay [18], > 100 µM (inactive).

Consider `COc1cc2ccc(CC(N)=O)cc2cc1OC`, for which the GI50 is > 100 µM (inactive) in [1]; more than 100 µM in assay [3]; > 100 µM (inactive) in assay [4]; > 100 µM (inactive) in assay [5]; > 100 µM (inactive) in [6]; > 100 µM (inactive) in [7]. The GI50 in assay [8], in assay [9], in [10], in [19], in [11] and in assay [12] was > 100 µM (inactive) each time. In addition, the GI50 in assay [13], in assay [14], in assay [15], in [16], in assay [17] and in assay [18] was > 100 µM (inactive) throughout.

For `O=c1ccc2cc3ccc4cccc5ccc(c2o1)c3c45`, the GI50 is 12.5 µM (inactive) in assay [2]; more than 100 µM in assay [3]; 22.2 µM (inactive) in [4]; > 100 µM (inactive) in assay [5]; > 100 µM (inactive) in [7]; 19.7 µM (inactive) in assay [8]. In addition, the GI50 was 25.9 µM (inactive) in [9]; > 10 µM (inactive) in [10]; 28.8 µM (inactive) in assay [11]; > 100 µM (inactive) in [12]; 13.6 µM (inactive) in assay [13]; 37.3 µM (inactive) in assay [14]. Besides, the figures for the GI50 in assay [15], in [16] and in assay [18] were > 100 µM (inactive), 13.1 µM (inactive) and 14.3 µM (inactive), respectively.

Consider `Cc1[nH]c2ncn(/N=C/c3ccccc3O)c(=N)c2c1Cc1ccccc1`, for which the GI50 was 39.4 µM (inactive) in assay [1]; 54.2 µM (inactive) in assay [2]; 46.3 µM in assay [3]; 47.6 µM (inactive) in assay [4]; 11.3 µM (inactive) in assay [5]; 30.2 µM (inactive) in assay [6]. Besides, the GI50 in assay [8] is 75.5 µM (inactive); in assay [10], 24.2 µM (inactive); in assay [19], > 100 µM (inactive); in [11] it was 75.2 µM (inactive); in assay [12] it was 23.3 µM (inactive); in assay [13] it was > 100 µM (inactive). In addition, the GI50 was > 100 µM (inactive) in [14]; 56.9 µM (inactive) in assay [15]; 19.6 µM (inactive) in [16]; 34.4 µM (inactive) in assay [17]; 43.1 µM (inactive) in assay [18].

Consider `O=C1C=CC=C/C1=C1/SC(c2ccccc2)=C(O)N1c1ccccc1`, for which the GI50 is > 100 µM (inactive) in assay [1]; > 100 µM (inactive) in assay [2]; more than 100 µM in [3]; > 100 µM (inactive) in assay [4]; > 100 µM (inactive) in assay [6]; > 100 µM (inactive) in assay [7]. Besides, the GI50 in [8], in assay [9], in [10], in assay [19], in assay [11] and in [12] was > 100 µM (inactive) in each case. Further, the GI50 in assay [13], in assay [14], in assay [15], in assay [16], in [17] and in assay [18] was > 100 µM (inactive) in each case.

With `CC(=O)[C@H]1CCC2[C@@H]3CC=C4C(O)C(OS(=O)(=O)O)CC[C@]4(C)C3CC[C@@]21C` (some centres not stated), the GI50 is > 100 µM (inactive) in [1]; more than 100 µM in assay [3]; > 100 µM (inactive) in assay [4]; > 100 µM (inactive) in assay [5]; > 100 µM (inactive) in assay [6]; > 100 µM (inactive) in assay [7]. For the same compound, the GI50 in [8], in assay [9], in assay [10], in assay [19], in assay [11] and in assay [12] was > 100 µM (inactive) each time. Further, the GI50 in [13], in [14], in [16] and in [18] was > 100 µM (inactive) throughout.

Turning to `NC1CCCCC1`, the GI50 in assay [1] was 194 µM (inactive); in assay [3], 470 µM; in assay [4], 199 µM (inactive); in assay [5], 138 µM (inactive); in [6] it was 211 µM (inactive); in assay [7], > 562 µM (inactive). Besides, the GI50 in [9] is 344 µM (inactive); in assay [10], 190 µM (inactive); in assay [19] it was 386 µM (inactive); in [11] it was 508 µM (inactive); in [12], 169 µM (inactive); in assay [14], 187 µM (inactive). Further, the GI50 in assay [16] is 313 µM (inactive); in assay [17], > 562 µM (inactive).

Turning to `COCCO` [2-METHOXYETHANOL], the GI50 in [1] is > 100 µM (inactive); in [3] it was more than 100 µM; in [4], > 100 µM (inactive); in assay [5], > 100 µM (inactive); in [6] it was > 100 µM (inactive); in [7] it was > 100 µM (inactive). The GI50 in assay [8], in assay [9], in assay [10], in [19], in [11] and in [12] was > 100 µM (inactive) in each case. Besides, the GI50 is > 100 µM (inactive) in assay [13]; > 100 µM (inactive) in assay [14]; > 100 µM (inactive) in assay [16]; > 100 µM (inactive) in [17]; > 87.3 µM (inactive) in assay [18].

For the compound `COc1cc([C@@H]2c3cc4c(cc3[C@@H](c3c(O)cc(O)c5c3O[C@H](c3ccc(O)c(O)c3)[C@@H](O)C5)[C@H]3COC(=O)[C@H]23)OCO4)cc(OC)c1O`, the GI50 in assay [1] was > 100 µM (inactive); in assay [2], > 100 µM (inactive); in assay [3], more than 100 µM; in assay [4], > 100 µM (inactive); in [5], 31.7 µM (inactive); in assay [6], > 100 µM (inactive). Moreover, the GI50 is > 100 µM (inactive) in assay [7]; 43.6 µM (inactive) in assay [9]; > 100 µM (inactive) in assay [10]; > 100 µM (inactive) in assay [19]; > 100 µM (inactive) in assay [11]; > 100 µM (inactive) in assay [12]. In addition, the GI50 in assay [13], in [14], in assay [15], in assay [16] and in [17] was > 100 µM (inactive) throughout.

`NC(Cc1c[nH]c2ccccc12)C(=O)O` (stereo not drawn) [DL-TRYPTOPHAN]: the GI50 in assay [1] was > 300 µM (inactive); in assay [3] it was 64.6 µM; in [4], > 300 µM (inactive); in assay [5], 204 µM (inactive); in assay [6], > 300 µM (inactive); in [7], > 300 µM (inactive). In addition, the GI50 in assay [8] is 30 µM (inactive); in [9], > 300 µM (inactive); in assay [10] it was > 300 µM (inactive); in [19], > 300 µM (inactive); in assay [11], > 300 µM (inactive); in [12], > 300 µM (inactive). Moreover, the GI50 in assay [13], in assay [14], in assay [16], in [17] and in [18] was > 300 µM (inactive) throughout.

The record behind these values is ChEMBL document CHEMBL1201862, “PubChem BioAssay data set” (2004).
